Laboratory results: patent US20080081284A1, “OPTICAL INFORMATION RECORDING MEDIUM” (FUJIFILM Corporation, priority 2006, published 2008)

test: Evaluation of light fastness of dye film; type: physicochemical; conditions: residual dye ratio at absorption λmax 48 hours after Xe light irradiation; dye film on glass plate
Method: Dye-containing coating liquids equal to those of Examples 1 to 3, and Comparative Examples 1 to 4 were prepared, and each coating liquid was applied to a 1.1-mm-thick glass plate by a spin coating method under conditions of 23° C. and 50% RH while changing the rotation rate within a range of 500 to 1,000 rpm. The glass plate with the dye film was stored for 24 hours under conditions of 23° C. and 50% RH, and then subjected to a light fastness test using a merry-go-round-type light fastness tester (Cell Tester Model III manufactured by Eagle Engineering, equipped with WG320 Filter manufactured by Schott). The absorption spectrum of the dye film was measured using UV-1600PC manufactured by SHIMADZU immediately before the light fastness test and 48 hours after the light fastness test, and the change of the absorbancy at the maximum absorption wavelength was evaluated.

Row | SMILES | Light fastness of dye film
1 | Cn1nc(C(C)(C)C)c(N=Nc2c(C#N)cnn2-c2cc(C(=O)O)cc(C(=O)O)c2)c1N [Compound (A-1)] | Good (evaluated as “Good” when the ratio was 70% or more and less than 85%)
2 | Cc1nn2nc(C(C)(C)C)c(/N=N/c3c(C#N)cnn3-c3cc(C(=O)O)cc(C(=O)O)c3)c2n1C [Compound (A-7)] | Excellent (Evaluated as “Excellent” when the residual dye ratio was 85% or more at the absorption λmax 48 hours after the irradiation with an Xe light)
3 | CCCCC(CC)COC(=O)Nc1ccc(-c2nn3nc(C(C)(C)C)c(/N=N/c4c(C#N)cnn4-c4cc(C(=O)O)cc(C(=O)O)c4)c3[nH]2)cc1 (stereo not shown) [Compound (C)] | Fair (evaluated as “Fair” when the ratio was 60% or more and less than 70%)
4 | Cc1n[nH]c2c(/N=N/c3c(C#N)c(C(C)(C)C)nn3C)c(C(C)(C)C)nn12 [Compound (D)] | Fair (evaluated as “Fair” when the ratio was 60% or more and less than 70%)
